Assay results reported in patent US20050181376A1, “Antisense modulation of microsomal triglyceride transfer protein expression” (ISIS Pharmaceuticals, Inc., priority 2001, published 2005).
Strand notation (5' to 3'): a small letter for the sugar, then the base; units joined by * are phosphorothioate-linked, units joined directly phosphodiester-linked; [ ] holds rarer units or linkages, { } end groups; capitals alone tell only the bases. e = 2'-O-(2-methoxyethyl) (MOE); [5mC] = 5-methylcytosine; d = 2'-deoxy (DNA)

The substances below were run on mouse microsomal triglyceride transfer protein mRNA (assay: Antisense inhibition of mouse microsomal triglyceride transfer protein mRNA levels in primary hepatocytes, quantitative real-time PCR). Settings: averages from two experiments.
Type: cell-based
Design: concentration or dose not given beside the values
Protocol: Primary mouse hepatocytes were prepared from CD-1 mice purchased from Charles River Labs (Wilmington, Mass.) and were routinely cultured in Hepatocyte Attachment Media (Gibco) supplemented with 10% Fetal Bovine Serum (Gibco/Life Technologies, Gaithersburg, Md.), 250 nM dexamethasone (Sigma), and 10 nM bovine insulin (Sigma). Cells were seeded into 96-well plates (Falcon-Primaria #3872) at a density of 10000 cells/well for use in RT-PCR analysis.
Cells were harvested 16-24 hours after oligonucleotide treatment.
All cytidine residues are 5-methylcytidines. […] Data are averages from two experiments. If present, “N.D.” indicates “no data”.

Substance	% INHIB (inhibition of mouse microsomal triglyceride transfer protein mRNA levels)
CCCTTTCACCACGCTGACAG (all phosphorothioate, sugars by position and methylation of C not given here; 2'-MOE wings and deoxy gap) [ISIS 144500, 2′-MOE gapmer phosphorothioate antisense oligonucleotide to mouse MTP]	at least 30%
144471 (e[5mC]*eA*eT*e[5mC]*eA*d[5mC]*d[5mC]*dA*dT*d[5mC]*dA*dG*dG*dA*dT*eT*e[5mC]*e[5mC]*eT*e[5mC]; antisense) [compound 144471]	21%
CACCTGCCACTTGCTTCCCG (all phosphorothioate, sugars by position and methylation of C not given here; 2'-MOE wings and deoxy gap) [ISIS 144479, 2′-MOE gapmer phosphorothioate antisense oligonucleotide to mouse MTP]	at least 30%
GACCACCCTGGATCTCCATA (all phosphorothioate, sugars by position and methylation of C not given here; 2'-MOE wings and deoxy gap) [ISIS 144501, 2′-MOE gapmer phosphorothioate antisense oligonucleotide to mouse MTP]	at least 30%
144500 (e[5mC]*e[5mC]*e[5mC]*eT*eT*dT*d[5mC]*dA*d[5mC]*d[5mC]*dA*d[5mC]*dG*d[5mC]*dT*eG*eA*e[5mC]*eA*eG; antisense) [compound 144500]	34%
144475 (eT*eG*eG*eA*eA*dT*dA*dA*dG*d[5mC]*dT*dA*dG*d[5mC]*d[5mC]*eA*eA*eG*e[5mC]*e[5mC]; antisense) [compound 144475]	18%
144468 (eG*eA*eT*e[5mC]*eA*dT*dG*d[5mC]*dT*dG*dG*d[5mC]*dT*d[5mC]*d[5mC]*e[5mC]*eT*e[5mC]*eT*eG; antisense) [compound 144468]	0%
144502 (e[5mC]*eT*e[5mC]*eG*e[5mC]*dG*dA*dT*dA*d[5mC]*d[5mC]*dA*d[5mC]*dA*dG*eA*e[5mC]*eT*eG*eA; antisense) [compound 144502]	51%
144506 (e[5mC]*eA*e[5mC]*eA*eT*d[5mC]*d[5mC]*dG*dG*d[5mC]*d[5mC]*dA*d[5mC]*dT*dA*eG*eG*e[5mC]*eT*e[5mC]; antisense) [compound 144506]	0%
CTCGCGATACCACAGACTGA (all phosphorothioate, sugars by position and methylation of C not given here; 2'-MOE wings and deoxy gap) [ISIS 144502, 2′-MOE gapmer phosphorothioate antisense oligonucleotide to mouse MTP]	at least 30%
144503 (eG*eT*eT*eA*eT*d[5mC]*dA*d[5mC]*d[5mC]*dA*d[5mC]*dA*dG*d[5mC]*d[5mC]*eA*e[5mC]*e[5mC]*e[5mC]*eG; antisense) [compound 144503]	50%
144491 (e[5mC]*eA*eG*e[5mC]*eA*dG*d[5mC]*dG*dG*d[5mC]*dA*dG*dT*dT*dG*eT*eG*e[5mC]*eG*e[5mC]; antisense) [compound 144491]	26%
ATTCTGACACAGCTTCCTGA (all phosphorothioate, sugars by position and methylation of C not given here; 2'-MOE wings and deoxy gap) [ISIS 144486, 2′-MOE gapmer phosphorothioate antisense oligonucleotide to mouse MTP]	at least 30%
144490 (eA*e[5mC]*eG*eA*eT*dT*d[5mC]*dT*dG*dG*dT*dG*dG*dT*dA*eT*eA*eT*e[5mC]*e[5mC]; antisense) [compound 144490]	23%
144485 (e[5mC]*eT*e[5mC]*eT*eG*dA*dT*dG*dT*d[5mC]*dG*dT*dT*dG*d[5mC]*eT*eT*eG*e[5mC]*eA; antisense) [compound 144485]	50%
144479 (e[5mC]*eA*e[5mC]*e[5mC]*eT*dG*d[5mC]*d[5mC]*dA*d[5mC]*dT*dT*dG*d[5mC]*dT*eT*e[5mC]*e[5mC]*e[5mC]*eG; antisense) [compound 144479]	65%
CCCTGGTCTCTTCTGCAAGC (all phosphorothioate, sugars by position and methylation of C not given here; 2'-MOE wings and deoxy gap) [ISIS 144478, 2′-MOE gapmer phosphorothioate antisense oligonucleotide to mouse MTP]	at least 30%
144497 (e[5mC]*eT*e[5mC]*eT*e[5mC]*d[5mC]*dT*dT*d[5mC]*dA*dT*d[5mC]*dA*dG*dG*eA*eG*eT*eG*eG; antisense) [compound 144497]	57%
144469 (eG*eA*eG*eT*eA*d[5mC]*dG*dT*dG*dA*dG*d[5mC]*dT*dT*dG*eT*eA*eT*eA*eG; antisense) [compound 144469]	0%
144505 (eA*eG*e[5mC]*e[5mC]*eT*dT*dG*dT*d[5mC]*d[5mC]*dA*dT*d[5mC]*dT*dG*e[5mC]*eA*eT*eG*e[5mC]; antisense) [compound 144505]	24%
TGACATGCCAGCATAAGAGT (all phosphorothioate, sugars by position and methylation of C not given here; 2'-MOE wings and deoxy gap) [ISIS 144498, 2′-MOE gapmer phosphorothioate antisense oligonucleotide to mouse MTP]	at least 30%
CTGCAATTAAGCCTTCCAGC (all phosphorothioate, sugars by position and methylation of C not given here; 2'-MOE wings and deoxy gap) [ISIS 144496, 2′-MOE gapmer phosphorothioate antisense oligonucleotide to mouse MTP]	at least 30%
144474 (eT*eA*eG*eA*eA*d[5mC]*dT*d[5mC]*d[5mC]*dT*dT*dG*dA*d[5mC]*d[5mC]*eT*eT*e[5mC]*e[5mC]*e[5mC]; antisense) [compound 144474]	16%
144478 (e[5mC]*e[5mC]*e[5mC]*eT*eG*dG*dT*d[5mC]*dT*d[5mC]*dT*dT*d[5mC]*dT*dG*e[5mC]*eA*eA*eG*e[5mC]; antisense) [compound 144478]	41%
144507 (eT*e[5mC]*eT*e[5mC]*eA*dG*dA*dG*dT*dT*d[5mC]*dT*dG*dT*dT*eG*eA*eT*eG*eG; antisense) [compound 144507]	0%
144494 (eA*eA*eG*eG*e[5mC]*dT*dG*dT*dA*dT*dG*dT*dG*dG*dA*e[5mC]*eG*e[5mC]*eT*eG; antisense) [compound 144494]	27%
144473 (eG*e[5mC]*e[5mC]*eT*e[5mC]*d[5mC]*dA*dG*dG*dT*dT*dG*dT*d[5mC]*d[5mC]*eT*eT*e[5mC]*e[5mC]*e[5mC]; antisense) [compound 144473]	1%
CAGCCTCAGCATACTTCAGA (all phosphorothioate, sugars by position and methylation of C not given here; 2'-MOE wings and deoxy gap) [ISIS 144488, 2′-MOE gapmer phosphorothioate antisense oligonucleotide to mouse MTP]	at least 30%
CAGAATGCCAGAGCCAGAGT (all phosphorothioate, sugars by position and methylation of C not given here; 2'-MOE wings and deoxy gap) [ISIS 144495, 2′-MOE gapmer phosphorothioate antisense oligonucleotide to mouse MTP]	at least 30%
144510 (eG*eG*eT*e[5mC]*eT*dT*d[5mC]*dT*d[5mC]*d[5mC]*dT*dG*dA*dA*dT*eA*eG*eG*eT*eT; antisense) [compound 144510]	0%

The substances below were run on human microsomal triglyceride transfer protein mRNA (assay: Antisense inhibition of human microsomal triglyceride transfer protein mRNA levels, quantitative real-time PCR). Settings: averages from two experiments.

Substance	% INHIB (inhibition of human microsomal triglyceride transfer protein mRNA levels)
144433 (eA*eT*eT*eA*eA*dG*dG*d[5mC]*dT*dT*d[5mC]*d[5mC]*dA*dG*dT*e[5mC]*e[5mC]*eT*eT*eG; antisense) [compound 144433]	0%
144425 (e[5mC]*e[5mC]*e[5mC]*eT*eT*d[5mC]*dT*d[5mC]*d[5mC]*dT*dG*d[5mC]*dT*dT*d[5mC]*eT*eG*e[5mC]*eA*eT; antisense) [compound 144425]	22%
